Data from ChEMBL document CHEMBL1131068, “Synthesis and pharmacological evaluation of N,N'-diarylguanidines as potent sodium channel blockers and anticonvulsant agents” (J Med Chem, 1998).

How the values were obtained:
[1] = test system: Mus musculus; experiment: The in vivo inhibitory activity of compound was measured as effectiveness in preventing seizures induced by loud -high frequency sounds in the DBA/2 mouse after 25 mg/kg ip administration.; type: functional; conditions: route intraperitoneal
[2] = target: Sodium channel protein type 2 subunit alpha (Rattus norvegicus, UniProt P04775); experiment: Sodium channel block, determined by % block of [14C]guanidinium flux in CHO line expressing rat type IIA sodium channels derived from rat brain
Chain of Sodium channel protein type 2 subunit alpha (P04775 whole entry): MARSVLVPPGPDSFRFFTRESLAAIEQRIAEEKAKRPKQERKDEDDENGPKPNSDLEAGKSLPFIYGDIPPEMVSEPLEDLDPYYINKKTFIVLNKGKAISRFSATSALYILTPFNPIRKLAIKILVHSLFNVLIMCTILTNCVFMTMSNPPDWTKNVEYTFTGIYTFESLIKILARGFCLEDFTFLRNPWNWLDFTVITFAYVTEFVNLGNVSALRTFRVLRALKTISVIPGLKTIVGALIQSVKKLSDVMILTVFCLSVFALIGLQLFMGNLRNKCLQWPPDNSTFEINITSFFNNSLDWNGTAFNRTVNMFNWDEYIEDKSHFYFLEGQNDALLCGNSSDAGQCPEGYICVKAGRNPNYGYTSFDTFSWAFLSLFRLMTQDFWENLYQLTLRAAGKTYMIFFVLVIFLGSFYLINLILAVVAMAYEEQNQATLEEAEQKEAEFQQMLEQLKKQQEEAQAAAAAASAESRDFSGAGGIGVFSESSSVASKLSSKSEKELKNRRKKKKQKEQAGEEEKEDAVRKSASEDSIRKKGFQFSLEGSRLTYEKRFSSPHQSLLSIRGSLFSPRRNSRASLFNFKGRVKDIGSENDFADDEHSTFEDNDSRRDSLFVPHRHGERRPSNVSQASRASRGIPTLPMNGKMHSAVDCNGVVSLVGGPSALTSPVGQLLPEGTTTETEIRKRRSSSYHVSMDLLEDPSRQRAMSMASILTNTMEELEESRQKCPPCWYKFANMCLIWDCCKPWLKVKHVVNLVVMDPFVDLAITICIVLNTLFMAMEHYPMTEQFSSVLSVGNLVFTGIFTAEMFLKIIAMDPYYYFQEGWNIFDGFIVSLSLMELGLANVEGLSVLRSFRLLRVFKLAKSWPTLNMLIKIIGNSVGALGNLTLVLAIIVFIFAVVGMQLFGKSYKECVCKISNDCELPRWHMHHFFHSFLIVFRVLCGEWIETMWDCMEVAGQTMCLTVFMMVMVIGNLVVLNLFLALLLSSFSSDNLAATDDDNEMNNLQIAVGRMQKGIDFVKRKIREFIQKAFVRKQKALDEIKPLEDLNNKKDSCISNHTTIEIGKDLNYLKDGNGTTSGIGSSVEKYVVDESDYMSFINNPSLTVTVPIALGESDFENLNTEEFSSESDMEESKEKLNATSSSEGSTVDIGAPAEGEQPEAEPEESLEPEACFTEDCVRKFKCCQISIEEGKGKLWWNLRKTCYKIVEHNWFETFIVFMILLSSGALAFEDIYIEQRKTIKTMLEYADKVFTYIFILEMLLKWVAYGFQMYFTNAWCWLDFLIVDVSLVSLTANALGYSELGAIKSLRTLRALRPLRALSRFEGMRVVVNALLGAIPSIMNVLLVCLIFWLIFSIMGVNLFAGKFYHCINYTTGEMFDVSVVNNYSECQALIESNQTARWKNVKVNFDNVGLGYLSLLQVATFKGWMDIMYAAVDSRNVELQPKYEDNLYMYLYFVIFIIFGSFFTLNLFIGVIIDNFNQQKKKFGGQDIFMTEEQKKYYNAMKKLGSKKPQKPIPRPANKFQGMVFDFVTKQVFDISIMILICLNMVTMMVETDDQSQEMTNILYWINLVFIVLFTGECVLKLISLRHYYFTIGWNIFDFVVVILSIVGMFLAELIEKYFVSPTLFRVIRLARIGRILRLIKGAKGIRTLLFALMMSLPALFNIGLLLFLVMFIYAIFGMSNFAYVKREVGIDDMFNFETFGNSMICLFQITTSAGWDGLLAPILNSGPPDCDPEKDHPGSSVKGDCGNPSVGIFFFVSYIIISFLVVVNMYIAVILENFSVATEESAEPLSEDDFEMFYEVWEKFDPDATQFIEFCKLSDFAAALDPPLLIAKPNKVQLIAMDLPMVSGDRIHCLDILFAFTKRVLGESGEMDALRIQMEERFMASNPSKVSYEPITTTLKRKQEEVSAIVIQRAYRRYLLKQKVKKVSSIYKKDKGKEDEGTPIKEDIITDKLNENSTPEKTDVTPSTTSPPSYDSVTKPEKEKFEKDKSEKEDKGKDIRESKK

[3] = physchem; conditions: octanol/15 mM HEPES/135 mM NaCl, pH 7.4
Description: Partition coefficient (logD7.4) (octanol/15 mM HEPES/135 mM NaCl at pH 7.4)

[4] = target: Glutamate NMDA receptor; experiment: Displacement of [3H]MK-801 from rat brain membrane N-methyl-D-aspartate glutamate receptor
[5] = Prevention of seizures induced by loud -high frequency sounds in the DBA/2 mouse after 20 mg/kg ip administration; type: functional; conditions: route intraperitoneal

SMILES | inhibition in vivo at 25 mg/kg [1] | IC50 [2] | logD [3] | IC50 [4] | inhibition in vivo at 20 mg/kg [5]
CCCCc1ccc(N=C(N)Nc2ccc(CCCC)cc2)cc1 | 82% | 130 nM | 4.1 | 3320 nM | –
CCC(C)c1ccc(NC(=N)Nc2ccc(C(C)CC)cc2)cc1 (stereo not given) | – | – | 3.94 | 10100 nM | 69%
CCCCc1ccc(NC(N)=Nc2ccc(OCc3ccccc3)cc2)cc1 | – | 140 nM | – | 4010 nM | 40%
NC(=Nc1ccc(Oc2ccccc2)cc1)Nc1ccc(Oc2ccccc2)cc1 | – | 430 nM | 3.55 | – | 21%
CC(C)(C)c1ccc(NC(=N)Nc2ccc(OCc3ccccc3)cc2)cc1 | – | 110 nM | 3.46 | 2190 nM | 27%
NC(=Nc1ccc(CCCCO)cc1)Nc1ccc(CCCCO)cc1 | – | 8190 nM | 0.047 | – | 0%
COc1ccc(/N=C(\N)Nc2ccc3c4c(cccc24)CC3)c2ccccc12 | – | – | 2.7 | 2490 nM | 50%
CC(C)(C)c1ccc(NC(=N)Nc2ccc(C(C)(C)C)cc2)cc1 | – | 1540 nM | 3.65 | > 7700 nM | 60%
CCCCOc1ccc(NC(=N)Nc2ccc(CCCCO)cc2)cc1 | – | 1780 nM | 1.72 | – | 11%
NC(=Nc1ccc(-c2ccccc2)cc1)Nc1ccc(-c2ccccc2)cc1 | – | 850 nM | 3.13 | – | –
CCCCOc1ccc(N=C(N)Nc2ccc(OCCCC)cc2)cc1 | – | 190 nM | 3.52 | 3480 nM | 52%
CCCCCCc1ccc(N=C(N)Nc2ccc(CCCCCC)cc2)cc1 | – | 830 nM | 6.07 | 7790 nM | 79%
CCC(C)c1ccc(NC(N)=Nc2ccc3c4c(cccc24)CC3)cc1 (stereo not given) | – | 680 nM | 3.31 | – | 33%
NC(=Nc1ccc(Sc2ccccc2)cc1)Nc1ccc(Sc2ccccc2)cc1 | – | 840 nM | 4.18 | – | –
CCc1ccc(NC(=N)Nc2ccc(CC)cc2)cc1 | – | 1390 nM | 1.7 | 7910 nM | 100%
Cc1ccc(N=C(N)Nc2ccc(C)cc2)cc1 | – | 9210 nM | 0.7 | 10200 nM | 43%
CC(C)c1ccc(NC(=N)Nc2ccc(C(C)C)cc2)cc1 | – | 460 nM | 2.72 | 17900 nM | 85%
Nc1nc2ccc(OC(F)(F)F)cc2s1 [RILUZOLE] | – | – | – | – | 92%
CN1CCN(c2ncc(-c3cc(Cl)cc(Cl)c3Cl)c(N)n2)CC1 [SIPATRIGINE] | – | – | 3.39 | – | 66%
